Measured values: patent publication US8362022B2, “Selective subtype alpha 2 adrenergic agents and methods for use thereof” (Allergan, Inc., priority 2008, dated 2013)
Like-named read-outs stand apart in the source and are kept apart here.

How the values were obtained:
Type in all cases: cell-based
alpha 2B receptor = target: T1, alpha 2B receptor (Homo sapiens, UniProt P18089); assay: RSAT assay (Receptor Selection and Amplification Technology), Alpha 2B; settings: for Intrinsic Activity efficacy Alpha 2B: value in parentheses, ratio of maximal effect to that of brimonidine
T1 construct: expressed in transfected cells; host or cells: NIH-3T3
T1 sequence (P18089 1-450): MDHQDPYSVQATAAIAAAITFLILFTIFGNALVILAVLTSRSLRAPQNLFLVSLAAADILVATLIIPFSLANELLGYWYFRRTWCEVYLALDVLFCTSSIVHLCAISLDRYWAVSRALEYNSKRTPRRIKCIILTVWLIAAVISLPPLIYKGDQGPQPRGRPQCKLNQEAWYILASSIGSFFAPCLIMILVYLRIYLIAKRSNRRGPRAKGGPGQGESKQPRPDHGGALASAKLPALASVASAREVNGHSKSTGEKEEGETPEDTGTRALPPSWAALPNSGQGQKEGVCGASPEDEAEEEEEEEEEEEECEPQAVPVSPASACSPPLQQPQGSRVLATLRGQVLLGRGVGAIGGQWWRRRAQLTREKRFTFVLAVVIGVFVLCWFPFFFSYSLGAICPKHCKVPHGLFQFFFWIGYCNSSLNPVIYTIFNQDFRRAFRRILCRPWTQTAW
Method: (§1) The RSAT assay measures a receptor-mediated loss of contact inhibition that results in selective proliferation of receptor-containing cells in a mixed population of confluent cells. The increase in cell number is assessed with an appropriate transfected marker gene such as β-galactosidase, the activity of which can be easily measured in a 96-well format. Receptors that activate the G protein, Gq, elicit this response. Alpha 2 receptors, which normally couple to Gi, activate the RSAT response when coexpressed with a hybrid Gq protein that has a Gi receptor recognition domain, called Gq/i5.
(§2) NIH-3T3 cells are plated at a density of 2×10^6 cells in 15 cm dishes and maintained in Dulbecco's modified Eagle's medium supplemented with 10% calf serum. One day later, cells are cotransfected by calcium phosphate precipitation with mammalian expression plasmids encoding p-SV-β-galactosidase (5-10 μg), receptor (1-2 μg) and G protein (1-2 μg). 40 μg salmon sperm DNA may also be included in the transfection mixture. […] Cells are thawed and 100 μl added to 100 μL aliquots of various concentrations of drugs in triplicate in 96-well dishes. Incubations continue 72-96 hr at 37° C. After washing with phosphate-buffered saline, β-galactosidase enzyme activity is determined by adding 200 μL of the chromogenic substrate (consisting of 3.5 mM o-nitrophenyl-β-D-galactopyranoside and 0.5% nonidet P-40 in phosphate buffered saline), incubating overnight at 30° C. and measuring optical density at 420 nm. The absorbance is a measure of enzyme activity, which depends on cell number and reflects a receptor-mediated cell proliferation. The efficacy or intrinsic activity is calculated as a ratio of the maximal effect of the drug to the maximal effect of a standard full agonist for each receptor subtype. Brimonidine, the chemical structure of which is shown below, is used as the standard agonist for the alpha 2B and alpha 2C receptors. […] NA stands for “not active” at concentrations less than 3-10 micromolar.

Alpha 1A = target: T2, Alpha 1A (Homo sapiens, UniProt P35348); assay: RSAT assay (Receptor Selection and Amplification Technology), Alpha 1A; settings: value in parentheses, ratio of maximal effect of drug to maximal effect of standard full agonist
T2 sequence (P35348 1-466): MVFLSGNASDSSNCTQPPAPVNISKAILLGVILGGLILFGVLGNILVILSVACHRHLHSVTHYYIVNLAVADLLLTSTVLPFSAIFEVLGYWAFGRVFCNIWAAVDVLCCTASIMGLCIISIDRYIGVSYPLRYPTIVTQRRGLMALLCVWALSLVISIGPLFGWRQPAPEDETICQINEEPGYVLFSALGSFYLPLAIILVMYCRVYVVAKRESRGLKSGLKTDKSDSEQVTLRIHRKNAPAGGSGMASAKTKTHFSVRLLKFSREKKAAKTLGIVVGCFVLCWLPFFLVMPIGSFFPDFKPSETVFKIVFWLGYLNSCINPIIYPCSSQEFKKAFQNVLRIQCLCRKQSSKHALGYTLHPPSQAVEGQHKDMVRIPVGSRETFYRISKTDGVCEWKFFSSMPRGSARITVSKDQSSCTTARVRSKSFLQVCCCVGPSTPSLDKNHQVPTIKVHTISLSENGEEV
Method: as §1, §2

alpha 2C receptor = target: T3, alpha 2C receptor (Homo sapiens, UniProt P18825); assay: RSAT assay (Receptor Selection and Amplification Technology), Alpha 2C; settings: for Intrinsic Activity efficacy Alpha 2C: value in parentheses, ratio of maximal effect to that of brimonidine
T3 construct: expressed in transfected cells; host or cells: NIH-3T3
T3 sequence (P18825 1-462): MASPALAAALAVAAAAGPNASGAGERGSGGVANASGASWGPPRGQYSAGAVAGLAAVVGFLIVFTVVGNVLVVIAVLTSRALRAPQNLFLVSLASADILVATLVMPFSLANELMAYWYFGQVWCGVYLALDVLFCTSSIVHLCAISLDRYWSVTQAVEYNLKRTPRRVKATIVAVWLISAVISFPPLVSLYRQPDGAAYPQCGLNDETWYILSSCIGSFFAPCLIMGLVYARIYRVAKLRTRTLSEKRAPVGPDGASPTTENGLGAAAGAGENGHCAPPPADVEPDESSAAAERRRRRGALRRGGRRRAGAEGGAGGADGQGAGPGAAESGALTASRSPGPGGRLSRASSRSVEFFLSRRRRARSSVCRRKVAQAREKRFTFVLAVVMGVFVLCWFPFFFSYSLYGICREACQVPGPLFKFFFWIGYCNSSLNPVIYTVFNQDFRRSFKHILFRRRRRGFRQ
Method: as §1, §2

[1] = RSAT, Table 2, read-out: Potency nM (EC50) Alpha 2B
[2] = RSAT, transfected NIH-3T3 cells with Gq/i5, NA = not active at concentrations less than 10 micromolar, read-out: potency nM (EC50) Alpha 2C
[3] = RSAT, transfected NIH-3T3 cells with Gq/i5, Table 1, read-out: potency nM (EC50) Alpha 2B

| SMILES | EC50 (alpha 2B receptor; [1]) | Intrinsic Activity efficacy Alpha 2B (alpha 2B receptor; RSAT, Table 2) | Intrinsic Activity efficacy Alpha 1A (Alpha 1A) | further results |
| --- | --- | --- | --- | --- |
| Cc1cccc(C(Cc2ccccn2)NC2=NCCO2)c1C (stereo not shown) | 6.7 nM | 0.93 | – | – |
| Clc1cccc(C(Cc2cccnc2Br)NC2=NCCO2)c1 (stereo not shown) | 1.3 nM | 1.05 | – | – |
| Fc1cccc(C(Cc2cccnc2Cl)NC2=NCCO2)c1 (stereo not shown) | 0.09 nM | 0.87 | – | – |
| Clc1ncccc1CC(NC1=NCCO1)c1cccc(Br)c1 (stereo not shown) | 0.14 nM | 1.01 | – | – |
| Fc1ncccc1CC(NC1=NCCO1)c1cccc(Cl)c1 (stereo not shown) | 0.21 nM | 0.81 | – | – |
| Cc1cncc(CC(NC2=NCCO2)c2cccc(C)c2)c1 (stereo not shown) | 3 nM | 1.1 | – | – |
| c1ccc(C(Cc2cccnc2)NC2=NCCO2)cc1 (stereo not shown) | – | 0.76 | – | EC50 (alpha 2B receptor): 4.5 nM |
| COc1cccc(C(Cc2cccnc2)NC2=NCCO2)c1 (stereo not shown) | 56 nM | 0.65 | – | – |
| Clc1cccc(C(Cc2cccnc2)NC2=NCCO2)c1Cl (stereo not shown) | 5.6 nM | 0.89 | – | – |
| Cc1cccc(C(Cc2cccnc2)NC2=NCCO2)c1 (stereo not shown) | 8.2 nM | 1.24 | – | – |
| Cc1c(Br)cncc1CC(NC1=NCCO1)c1cccc(Cl)c1 (stereo not shown) | 1.9 nM | 1.35 | – | – |
| Cc1cccc(C(Cc2cncc(Br)c2C)NC2=NCCO2)c1 (stereo not shown) | 2.7 nM | 1.02 | – | – |
| c1ccc(C(Cc2ccncc2)/N=C2/NCCO2)cc1 (stereo not shown) [Compound 1, N-(Oxazolidin-2-ylidene)-1-phenyl-2-(pyridin-4-yl)ethanamine] | – | – | 1.20 | EC50 (alpha 2B receptor): 8 nM; Intrinsic Activity efficacy Alpha 2B (alpha 2B receptor; RSAT, Table 1): 1.09; EC50 (alpha 2C receptor; [2]): 132 nM; Intrinsic Activity efficacy Alpha 2C (alpha 2C receptor; RSAT): 0.67 |
| c1ccc(C(Cc2ccncc2)N=C2NCCN2)cc1 (stereo not shown) [Compound 3, N-(Imidazolidin-2-ylidene)-1-phenyl-2-(pyridin-4-yl)ethanamine] | – | – | 0.63 | – |
| Cc1cccc(C(Cc2ccncc2)N=C2NCCN2)c1C (stereo not shown) [Compound 5, 1-(2,3-Dimethylphenyl)-N-(imidazolidin-2-ylidene)-2-(pyridin-4-yl)ethanamine] | – | – | – | EC50 (alpha 2B receptor): 3.1 nM; Intrinsic Activity efficacy Alpha 2B (alpha 2B receptor; RSAT, Table 1): 1.15; EC50 (alpha 2C receptor): 8.4 nM; Intrinsic Activity efficacy Alpha 2C (alpha 2C receptor; RSAT): 0.49 |
| c1ccc(C(Cc2cnccn2)/N=C2/NCCO2)cc1 (stereo not shown) [Compound 14, N-(Oxazolidin-2-ylidene)-1-phenyl-2-(pyrazin-2-yl)ethanamine] | – | – | 1.19 | EC50 (alpha 2B receptor; [3]): 132 nM; Intrinsic Activity efficacy Alpha 2B (alpha 2B receptor; RSAT, Table 1): 1.0 |
| c1ccc(C(Cc2cnccn2)N=C2NCCN2)cc1 (stereo not shown) [Compound 15, N-(Imidazolidin-2-ylidene)-1-phenyl-2-(pyrazin-2-yl)ethanamine] | – | – | 0.72 | EC50 (alpha 2B receptor; [3]): 198 nM; Intrinsic Activity efficacy Alpha 2B (alpha 2B receptor; RSAT, Table 1): 0.84 |
| Fc1c(Cl)cccc1C(Cc1ccncc1)N=C1NCCN1 (stereo not shown) [Compound 20, 1-(3-Chloro-2-fluorophenyl)-N-(imidazolidin-2-ylidene)-2-(pyridin-4-yl)ethanamine] | – | – | 0.6 | – |
| Cc1cccc(C(Cc2cccnc2)/N=C2/NCCS2)c1C (stereo not shown) [Compound 22, 1-(2,3-Dimethylphenyl)-2-(pyridin-3-yl)-N-(thiazolidin-2-ylidene)ethanamine] | – | – | 0.7 | – |
| c1ccc([C@@H](Cc2ccncc2)N=C2NCCN2)cc1 [Compound 29, R—N-(imidazolidin-2-ylidene)-1-phenyl-2-(pyridin-4-yl)ethanamine] | – | – | 0.60 | EC50 (alpha 2C receptor; [2]): 96 nM; Intrinsic Activity efficacy Alpha 2C (alpha 2C receptor; RSAT): 0.60 |
| Clc1cccc(C(Cc2ccncc2)N=C2NCCN2)c1Cl (stereo not shown) [Compound 32, 1-(2,3-Dichlorophenyl)-N-(imidazolidin-2-ylidene)-2-(pyridin-4-yl)ethanamine] | – | – | 0.52 | EC50 (alpha 2B receptor; [3]): 1 nM; Intrinsic Activity efficacy Alpha 2B (alpha 2B receptor; RSAT, Table 1): 1.3 |

Now from value to compound, other results behind:

| EC50 (alpha 2B receptor; [1]) | Intrinsic Activity efficacy Alpha 2B (alpha 2B receptor; RSAT, Table 2) | Intrinsic Activity efficacy Alpha 1A (Alpha 1A) | SMILES | further results |
| --- | --- | --- | --- | --- |
| 16 nM | 0.74 | – | c1ccc(C(Cc2cccnc2)NC2=NCCN2)cc1 (stereo not shown) | – |
| 0.48 nM | 1.01 | – | Clc1cccc(C(Cc2cccnc2Cl)NC2=NCCO2)c1 (stereo not shown) | – |
| 0.06 nM | 0.88 | – | Cc1cccc(C(Cc2cccnc2Cl)NC2=NCCO2)c1 (stereo not shown) | – |
| 4 nM | 1.12 | – | Cc1cncc(CC(NC2=NCCO2)c2cccc(Cl)c2)c1 (stereo not shown) | – |
| 8.5 nM | 0.9 | – | Cc1cncc(CC(NC2=NCCO2)c2cccc(Cl)c2)c1C (stereo not shown) | – |
| 3.9 nM | 1.11 | – | Cc1cccc(C(Cc2cncc(C)c2C)NC2=NCCO2)c1 (stereo not shown) | – |
| 5.6 nM | 1.08 | – | Cc1c(Cl)cncc1CC(NC1=NCCO1)c1cccc(Cl)c1 (stereo not shown) | – |
| – | – | 1.45 | c1ccc(C(Cc2ccncc2)/N=C2/NCCS2)cc1 (stereo not shown) [Compound 2, 1-Phenyl-2-(pyridin-4-yl)-N-(thiazolidin-2-ylidene)ethanamine] | EC50 (alpha 2B receptor; [3]): 10 nM; Intrinsic Activity efficacy Alpha 2B (alpha 2B receptor; RSAT, Table 1): 1.18; EC50 (alpha 2C receptor; [2]): 525 nM; Intrinsic Activity efficacy Alpha 2C (alpha 2C receptor; RSAT): 0.72 |
| – | – | 0.77 | Cc1cccc(C(Cc2ccncc2)/N=C2/NCCS2)c1C (stereo not shown) [Compound 4, 1-(2,3-Dimethylphenyl)-2-(pyridin-4-yl)-N-(thiazolidin-2-ylidene)ethanamine] | EC50 (alpha 2B receptor; [3]): 3.8 nM; Intrinsic Activity efficacy Alpha 2B (alpha 2B receptor; RSAT, Table 1): 1.1; EC50 (alpha 2C receptor; [2]): 14 nM; Intrinsic Activity efficacy Alpha 2C (alpha 2C receptor; RSAT): 0.63 |
| – | – | 1.4 | Clc1cccc(C(Cc2ccncc2)/N=C2/NCCO2)c1 (stereo not shown) [Compound 8, 1-(3-Chlorophenyl)-N-(oxazolidin-2-ylidene)-2-(pyridin-4-yl)ethanamine] | – |
| – | – | 1.0 | COc1ccccc1C(Cc1ccncc1)N=C1NCCN1 (stereo not shown) [Compound 10, N-(Imidazolidin-2-ylidene)-1-(2-methoxyphenyl)-2-(pyridin-4-yl)ethanamine] | – |
| – | – | 1.27 | Fc1c(Cl)cccc1C(Cc1ccncc1)/N=C1/NCCO1 (stereo not shown) [Compound 19, 1-(3-Chloro-2-fluorophenyl)-N-(oxazolidin-2-ylidene)-2-(pyridin-4-yl)ethanamine] | – |
| – | – | 1.36 | Fc1cccc(C(Cc2ccncc2)/N=C2/NCCS2)c1 (stereo not shown) [Compound 23, 1-(3-Fluorophenyl)-2-(pyridin-4-yl)-N-(thiazolidin-2-ylidene)ethanamine] | – |
